Results published in patent US9790228B2, “Heterocyclic kinase inhibitors” (Intellikine LLC, priority 2008, dated 2017).

Tests used:
p110γ = p110γ (Homo sapiens (Human), UniProt P48736); experiment: PI3K γ inhibition assay (TLC lipid kinase or HTRF); type: biochemical
In short: (§1)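 IC50 from TLC lipid kinase assay (25 mM HEPES pH 7.4, 10 mM MgCl2, 100 μg/ml phosphatidylinositol, 10 or 100 μM γ-32P-ATP, 5 min RT, phosphorimager) at 10–12 two-fold dilutions, or HTRF (10 μM PIP2, 10 μM ATP, 1 h RT) measuring PIP3 by TR-FRET; 2% DMSO final.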

p110δ/p85α = p110δ/p85α (Homo sapiens (Human), UniProt O00329); experiment: PI3K δ inhibition assay (TLC lipid kinase or HTRF); type: biochemical
p110δ/p85α, sequence (O00329 whole entry): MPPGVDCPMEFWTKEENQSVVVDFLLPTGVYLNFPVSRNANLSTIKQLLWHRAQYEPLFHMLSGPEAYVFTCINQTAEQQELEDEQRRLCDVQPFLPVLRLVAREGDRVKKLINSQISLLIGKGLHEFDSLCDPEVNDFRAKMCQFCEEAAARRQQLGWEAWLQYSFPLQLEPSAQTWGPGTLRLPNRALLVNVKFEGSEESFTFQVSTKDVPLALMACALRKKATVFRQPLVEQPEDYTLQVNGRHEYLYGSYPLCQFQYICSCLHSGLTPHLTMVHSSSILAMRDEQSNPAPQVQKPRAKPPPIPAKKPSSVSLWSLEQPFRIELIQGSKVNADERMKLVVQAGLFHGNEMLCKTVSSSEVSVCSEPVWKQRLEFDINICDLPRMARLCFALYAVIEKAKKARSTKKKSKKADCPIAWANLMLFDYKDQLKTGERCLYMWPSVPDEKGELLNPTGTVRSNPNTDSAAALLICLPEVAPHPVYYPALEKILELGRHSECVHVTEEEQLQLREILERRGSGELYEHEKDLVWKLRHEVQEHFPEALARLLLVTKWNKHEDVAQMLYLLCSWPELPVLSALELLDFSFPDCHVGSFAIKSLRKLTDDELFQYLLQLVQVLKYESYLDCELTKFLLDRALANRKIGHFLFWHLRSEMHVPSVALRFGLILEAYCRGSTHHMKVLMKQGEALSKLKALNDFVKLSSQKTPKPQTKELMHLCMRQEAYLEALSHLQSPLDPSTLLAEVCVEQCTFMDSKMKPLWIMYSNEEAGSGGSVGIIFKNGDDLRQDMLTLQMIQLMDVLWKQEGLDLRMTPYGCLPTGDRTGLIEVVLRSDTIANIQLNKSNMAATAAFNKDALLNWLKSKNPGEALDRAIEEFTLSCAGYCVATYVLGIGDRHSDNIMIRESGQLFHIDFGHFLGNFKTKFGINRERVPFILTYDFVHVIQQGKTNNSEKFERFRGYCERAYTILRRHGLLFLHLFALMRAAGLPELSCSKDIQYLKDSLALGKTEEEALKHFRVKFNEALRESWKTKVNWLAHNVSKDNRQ
p110δ/p85α, sequence (P27986 whole entry partner): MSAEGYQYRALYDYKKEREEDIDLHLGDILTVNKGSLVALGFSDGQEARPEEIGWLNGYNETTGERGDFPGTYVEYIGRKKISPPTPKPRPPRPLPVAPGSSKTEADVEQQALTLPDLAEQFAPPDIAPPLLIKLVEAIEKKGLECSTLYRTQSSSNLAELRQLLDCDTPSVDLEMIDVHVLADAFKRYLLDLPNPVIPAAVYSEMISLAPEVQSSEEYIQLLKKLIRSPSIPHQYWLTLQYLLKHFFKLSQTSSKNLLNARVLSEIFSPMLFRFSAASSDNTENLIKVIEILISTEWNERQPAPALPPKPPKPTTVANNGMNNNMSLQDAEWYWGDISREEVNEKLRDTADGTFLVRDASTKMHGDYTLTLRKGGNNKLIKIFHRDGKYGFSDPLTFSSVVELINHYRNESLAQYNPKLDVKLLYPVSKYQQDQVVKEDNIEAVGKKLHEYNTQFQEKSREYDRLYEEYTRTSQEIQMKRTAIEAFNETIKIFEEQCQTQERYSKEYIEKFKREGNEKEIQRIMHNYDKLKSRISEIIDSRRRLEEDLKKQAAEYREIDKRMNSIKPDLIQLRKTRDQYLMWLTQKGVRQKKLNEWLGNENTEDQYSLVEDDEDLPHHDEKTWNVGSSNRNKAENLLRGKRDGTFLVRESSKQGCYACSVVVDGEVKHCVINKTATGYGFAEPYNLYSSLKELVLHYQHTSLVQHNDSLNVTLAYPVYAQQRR
In short: as §1

Balb/c splenic B cells = experiment: B cell activation and proliferation assay (Alamar Blue); type: cell-based, mouse; settings: Mus musculus, B-cell
In short: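 Purified Balb/c splenic B cells, 50,000/well, pretreated with compound 30 min (0.2% DMSO), then stimulated with 10 ug/ml LPS or 5 ug/ml anti-IgM F(ab′)2 plus 2 ng/ml IL4 (cocktail concentrations) for 72 h at 37 °C. Alamar Blue 5 h, fluorescence 560/590 nm; IC50/EC50 calculated.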

p110α/p85α = p110α/p85α (Homo sapiens (Human), UniProt P42336); experiment: PI3K α inhibition assay (TLC lipid kinase or HTRF); type: biochemical
p110α/p85α, sequence (P42336 whole entry): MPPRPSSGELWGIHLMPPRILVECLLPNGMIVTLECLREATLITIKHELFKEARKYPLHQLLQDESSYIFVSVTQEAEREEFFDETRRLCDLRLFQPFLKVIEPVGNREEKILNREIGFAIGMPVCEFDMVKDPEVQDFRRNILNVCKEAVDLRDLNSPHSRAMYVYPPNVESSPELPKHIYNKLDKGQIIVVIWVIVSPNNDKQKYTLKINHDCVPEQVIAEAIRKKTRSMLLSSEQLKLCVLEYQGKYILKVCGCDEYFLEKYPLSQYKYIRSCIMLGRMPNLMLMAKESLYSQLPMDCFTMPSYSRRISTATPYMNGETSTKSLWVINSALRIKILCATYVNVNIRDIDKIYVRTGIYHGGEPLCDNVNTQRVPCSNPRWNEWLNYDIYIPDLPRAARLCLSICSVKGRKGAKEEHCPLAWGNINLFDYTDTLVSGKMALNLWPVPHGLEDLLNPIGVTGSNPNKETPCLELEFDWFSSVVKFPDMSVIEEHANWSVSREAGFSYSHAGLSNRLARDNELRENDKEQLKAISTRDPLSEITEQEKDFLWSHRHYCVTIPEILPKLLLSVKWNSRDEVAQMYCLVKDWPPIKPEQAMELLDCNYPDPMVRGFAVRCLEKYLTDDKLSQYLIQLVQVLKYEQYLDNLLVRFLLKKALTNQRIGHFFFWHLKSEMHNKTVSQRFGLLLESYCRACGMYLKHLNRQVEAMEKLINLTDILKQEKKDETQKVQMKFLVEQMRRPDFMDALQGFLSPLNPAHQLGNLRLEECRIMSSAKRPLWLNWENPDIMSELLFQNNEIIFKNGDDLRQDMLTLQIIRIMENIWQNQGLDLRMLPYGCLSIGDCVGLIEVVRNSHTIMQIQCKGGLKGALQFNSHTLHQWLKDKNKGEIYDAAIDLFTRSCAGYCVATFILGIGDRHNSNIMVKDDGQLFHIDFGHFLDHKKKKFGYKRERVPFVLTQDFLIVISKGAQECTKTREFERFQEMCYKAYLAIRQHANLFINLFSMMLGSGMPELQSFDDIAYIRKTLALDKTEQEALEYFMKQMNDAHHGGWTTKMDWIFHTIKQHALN
p110α/p85α, sequence (P27986 whole entry partner): as the sequence (P27986 whole entry partner) above
In short: as §1

p110β/p85α = p110β/p85α (Homo sapiens, UniProt P42338); experiment: PI3K β inhibition assay (TLC lipid kinase or HTRF); type: biochemical; settings: read-out: PI3K β IC50
p110β/p85α, sequence (P42338 whole entry, looked up): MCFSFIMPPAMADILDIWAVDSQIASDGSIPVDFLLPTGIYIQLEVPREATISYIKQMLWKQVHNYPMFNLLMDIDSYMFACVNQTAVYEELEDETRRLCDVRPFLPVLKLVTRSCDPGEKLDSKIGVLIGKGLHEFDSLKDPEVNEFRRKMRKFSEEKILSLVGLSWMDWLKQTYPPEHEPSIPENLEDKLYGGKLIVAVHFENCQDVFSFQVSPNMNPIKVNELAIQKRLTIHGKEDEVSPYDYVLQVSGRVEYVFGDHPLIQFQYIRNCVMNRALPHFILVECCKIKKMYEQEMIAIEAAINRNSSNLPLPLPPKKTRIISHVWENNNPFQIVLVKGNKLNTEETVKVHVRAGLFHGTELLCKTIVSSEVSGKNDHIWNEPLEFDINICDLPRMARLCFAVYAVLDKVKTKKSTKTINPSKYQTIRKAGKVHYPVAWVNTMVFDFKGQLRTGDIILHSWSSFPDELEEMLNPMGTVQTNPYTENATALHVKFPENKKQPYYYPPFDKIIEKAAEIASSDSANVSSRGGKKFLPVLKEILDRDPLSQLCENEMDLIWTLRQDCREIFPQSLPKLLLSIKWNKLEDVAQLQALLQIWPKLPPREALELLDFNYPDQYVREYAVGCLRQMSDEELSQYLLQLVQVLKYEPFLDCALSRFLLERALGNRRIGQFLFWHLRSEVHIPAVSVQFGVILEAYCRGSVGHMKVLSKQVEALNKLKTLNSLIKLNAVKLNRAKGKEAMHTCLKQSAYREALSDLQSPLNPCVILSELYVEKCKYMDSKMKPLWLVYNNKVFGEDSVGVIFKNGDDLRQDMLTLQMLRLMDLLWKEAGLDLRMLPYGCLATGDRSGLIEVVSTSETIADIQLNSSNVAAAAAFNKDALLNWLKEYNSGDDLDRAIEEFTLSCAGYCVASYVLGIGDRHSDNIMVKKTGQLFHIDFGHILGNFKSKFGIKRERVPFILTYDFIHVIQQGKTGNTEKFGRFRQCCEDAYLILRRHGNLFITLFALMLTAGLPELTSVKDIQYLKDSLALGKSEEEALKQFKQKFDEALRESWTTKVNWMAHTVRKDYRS
In short: as §1

p110γ, sequence (P48736 whole entry): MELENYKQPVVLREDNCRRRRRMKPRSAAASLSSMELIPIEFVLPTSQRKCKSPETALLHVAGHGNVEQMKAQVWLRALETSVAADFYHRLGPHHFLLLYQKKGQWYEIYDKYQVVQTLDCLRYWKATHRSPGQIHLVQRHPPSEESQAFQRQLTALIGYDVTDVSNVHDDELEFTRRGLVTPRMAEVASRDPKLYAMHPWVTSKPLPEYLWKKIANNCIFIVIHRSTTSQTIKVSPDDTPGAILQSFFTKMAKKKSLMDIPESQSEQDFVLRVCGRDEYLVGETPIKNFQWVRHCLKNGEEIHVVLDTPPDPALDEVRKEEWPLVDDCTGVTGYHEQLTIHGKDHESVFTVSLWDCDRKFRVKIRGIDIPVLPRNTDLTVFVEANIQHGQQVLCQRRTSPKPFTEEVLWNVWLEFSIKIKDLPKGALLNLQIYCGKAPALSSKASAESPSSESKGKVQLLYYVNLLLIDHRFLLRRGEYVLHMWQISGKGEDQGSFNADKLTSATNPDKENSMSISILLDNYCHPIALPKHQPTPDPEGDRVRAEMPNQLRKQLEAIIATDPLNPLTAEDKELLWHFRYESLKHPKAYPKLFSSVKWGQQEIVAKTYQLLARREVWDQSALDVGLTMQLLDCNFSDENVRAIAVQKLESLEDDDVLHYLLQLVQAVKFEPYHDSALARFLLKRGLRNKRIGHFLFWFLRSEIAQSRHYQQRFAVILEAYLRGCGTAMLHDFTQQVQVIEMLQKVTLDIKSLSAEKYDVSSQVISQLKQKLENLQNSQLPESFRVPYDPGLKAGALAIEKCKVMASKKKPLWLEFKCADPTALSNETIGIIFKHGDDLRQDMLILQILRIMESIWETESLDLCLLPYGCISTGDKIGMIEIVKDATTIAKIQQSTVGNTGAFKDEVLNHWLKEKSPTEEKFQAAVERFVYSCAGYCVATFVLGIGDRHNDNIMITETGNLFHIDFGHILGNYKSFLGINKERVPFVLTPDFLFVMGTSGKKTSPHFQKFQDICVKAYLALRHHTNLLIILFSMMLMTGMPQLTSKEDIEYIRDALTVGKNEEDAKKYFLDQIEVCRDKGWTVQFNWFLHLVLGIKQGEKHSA

Row | Structure (SMILES) | IC50 (p110γ) [nM] | IC50 (p110δ/p85α) [nM] | EC50 (Balb/c splenic B cells) [nM] | IC50 (p110α/p85α) [nM] | IC50 (p110β/p85α) [nM]
1 | Nc1nc2ccc(-c3nn(Cc4cc5ccccc5nc4N4CCCC4)c4ncnc(N)c34)cc2s1 [Compound 79] | < 100 | < 100 | < 100 | < 100 | > 1000
2 | CCC(c1cc2ccccc2nc1N1CCCC1)n1nc(-c2cc(O)cc(F)c2)c2c(N)ncnc21 (stereo not drawn) [Compound 40] | 100 to 1000 | < 100 | < 100 | > 1000 | > 1000
3 | Nc1ncnc2c1c(-c1ccc3cn[nH]c3c1)nn2CC1=Cc2ccccc2NC1N1CCCC1 (stereo not drawn) [Compound 81] | > 1000 | < 100 | 100 to 1000 | > 1000 | > 1000
4 | Nc1ncc2cc(-c3nn(Cc4cc5ccccc5nc4-c4ccccc4F)c4ncnc(N)c34)ccc2n1 [Compound 135] | < 100 | < 100 | < 100 | 100 to 1000 | > 1000
5 | Nc1nc2cc(-c3nn(Cc4cc5ccccc5nc4N4CCCC4)c4ncnc(N)c34)ccc2[nH]1 [Compound 153] | < 100 | < 100 | 100 to 1000 | < 100 | 100 to 1000
6 | Nc1nc2ccc(-c3nn(Cc4cc5ccccc5nc4-c4ccccc4C(F)(F)F)c4ncnc(N)c34)cc2[nH]1 [Compound 181] | < 100 | < 100 | 100 to 1000 | > 1000 | > 1000
7 | Nc1ncnc2c1c(-c1cc(O)cc(F)c1)nn2Cc1cc2ccccc2nc1N1CCCC1 [Compound 2] | < 100 | < 100 | < 100 | > 1000 | 100 to 1000
8 | Cc1ccccc1-c1nc2ccccc2cc1Cn1nc(-c2cc(O)cc(F)c2)c2c(N)ncnc21 [Compound 4] | < 100 | < 100 | < 100 | > 1000 | > 1000
9 | Cc1ccccc1-c1nc2c(C)cccc2cc1Cn1nc(-c2cc(O)cc(F)c2)c2c(N)ncnc21 [Compound 8] | < 100 | < 100 | < 100 | > 1000 | > 1000
10 | CC(Nc1ncnc2[nH]cnc12)c1cc2ccccc2nc1N1CCN(C)CC1 (stereo not drawn) [Compound 82] | > 1000 | < 100 | < 100 | > 1000 | > 1000
11 | Cc1ccccc1-c1nc2ccccc2nc1Cn1nc(-c2cc(O)cc(F)c2)c2c(N)ncnc21 [Compound 107] | > 1000 | < 100 | < 100 | > 1000 | > 1000
12 | Nc1ncnc2c1c(-c1cc(O)cc(F)c1)nn2Cc1cc2ccccc2nc1CCN1CCCC1 [Compound 165] | > 1000 | < 100 | < 100 | > 1000 | 100 to 1000
13 | Nc1ncnc2c1c(-c1cc(O)cc(F)c1)nn2Cc1cc2ccccc2nc1Cl [Compound 54] | 100 to 1000 | < 100 | < 100 | > 1000 | > 1000
14 | Nc1ccnc2c1c(-c1cccc(O)c1)nn2Cc1cc2ccccc2nc1-c1cccnc1 [Compound 77] | > 1000 | < 100 | < 100 | > 1000 | > 1000
15 | CC(C)Oc1nc2ccccc2cc1Cn1nc(-c2cc(O)cc(F)c2)c2c(N)ncnc21 [Compound 156] | 100 to 1000 | < 100 | 100 to 1000 | > 1000 | > 1000
16 | Cc1ccccc1-c1nc2c(C)cccc2cc1Cn1nc(I)c2c(N)ncnc21 [Compound 7] | < 100 | < 100 | 100 to 1000 | > 1000 | > 1000
17 | Nc1ncnc2ccc(-c3nn(Cc4cc5ccccc5nc4-c4ccccc4F)c4ncnc(N)c34)cc12 [Compound 138] | < 100 | < 100 | 100 to 1000 | > 1000 | > 1000
18 | Cc1ccccc1-c1nc2ccccc2cc1Cn1nc(-c2ccc3cc(N)sc3c2)c2c(N)ncnc21 [Compound 86] | < 100 | < 100 | 100 to 1000 | > 1000 | > 1000
19 | Nc1nc2ccc(-c3nn(Cc4cc5ccccc5nc4N4CCOCC4)c4ncnc(N)c34)cc2s1 [Compound 129] | < 100 | < 100 | < 100 | < 100 | 100 to 1000
20 | Cc1ccccc1-c1nc2ccccc2cc1Cn1nc(-c2ccc3ncnc(N)c3c2)c2c(N)ncnc21 [Compound 134] | < 100 | < 100 | 100 to 1000 | > 1000 | > 1000
21 | Nc1ccc2cc(-c3nn(Cc4cc5ccccc5nc4-c4ccccc4F)c4ncnc(N)c34)ccc2n1 [Compound 136] | < 100 | < 100 | 100 to 1000 | > 1000 | > 1000
